Data: ChEMBL document CHEMBL1148935, “Mechanism-based inactivation of COX-1 by red wine m-hydroquinones: a structure-activity relationship study” (J Nat Prod, 2004)
Activity calls are given as the source filed them. The rule behind the calls is not given here.

Assays:
[1] = target: T1, Prostaglandin G/H synthase 1 (Ovis aries, UniProt P05979); test: Inhibition of peroxidase activity of COX1 in heep seminal vesicle by TMPD assay; format: tissue-based
T1 sequence (P05979 whole entry): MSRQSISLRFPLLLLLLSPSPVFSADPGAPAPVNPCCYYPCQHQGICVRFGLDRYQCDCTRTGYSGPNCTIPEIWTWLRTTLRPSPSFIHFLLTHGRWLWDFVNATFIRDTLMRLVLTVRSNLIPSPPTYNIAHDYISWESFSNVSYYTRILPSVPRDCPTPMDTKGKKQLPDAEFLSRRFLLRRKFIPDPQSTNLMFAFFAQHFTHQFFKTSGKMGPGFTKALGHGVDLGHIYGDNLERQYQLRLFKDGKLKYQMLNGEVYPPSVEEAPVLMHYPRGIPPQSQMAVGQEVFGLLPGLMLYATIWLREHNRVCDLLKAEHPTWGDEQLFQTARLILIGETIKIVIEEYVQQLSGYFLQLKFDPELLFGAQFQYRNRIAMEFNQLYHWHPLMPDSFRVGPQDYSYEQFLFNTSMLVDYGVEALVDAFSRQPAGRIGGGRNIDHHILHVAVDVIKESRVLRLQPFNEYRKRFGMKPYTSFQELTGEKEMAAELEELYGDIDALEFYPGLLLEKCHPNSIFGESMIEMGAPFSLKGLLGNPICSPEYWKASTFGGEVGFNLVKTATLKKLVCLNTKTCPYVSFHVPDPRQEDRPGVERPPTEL

[2] = target: T1, Prostaglandin G/H synthase 1; test: Inhibition of cyclooxygenase activity of COX1 in sheep seminal vesicle in presence of 1 mM phenol by cyclooxygenase assay; format: tissue-based
[3] = target: T2, Prostaglandin G/H synthase 1 (Ovis aries) (UniProt P05979); test: Effect on COX1 activity in sheep seminal vesicle at 5 uM by TMPD peroxidase assay; format: tissue-based
T2 sequence (whole entry): T1 sequence (P05979 whole entry)

[4] = target: T2, Prostaglandin G/H synthase 1 (Ovis aries); test: Inactivation of holo-COX1 in sheep seminal vesicle assessed as drug oxidization at 2.5 to 4 nmol by RP-HPLC in presence of hydrogen peroxide
[5] = target: T1, Prostaglandin G/H synthase 1; test: Binding affinity to COX1 in sheep seminal vesicle
[6] = target: T3, Prostaglandin G/H synthase 2 (Homo sapiens) (UniProt P35354); test: Inhibition of human COX2 expressed in baculovirus infected Sf-21 insect cells
T3 sequence (whole entry): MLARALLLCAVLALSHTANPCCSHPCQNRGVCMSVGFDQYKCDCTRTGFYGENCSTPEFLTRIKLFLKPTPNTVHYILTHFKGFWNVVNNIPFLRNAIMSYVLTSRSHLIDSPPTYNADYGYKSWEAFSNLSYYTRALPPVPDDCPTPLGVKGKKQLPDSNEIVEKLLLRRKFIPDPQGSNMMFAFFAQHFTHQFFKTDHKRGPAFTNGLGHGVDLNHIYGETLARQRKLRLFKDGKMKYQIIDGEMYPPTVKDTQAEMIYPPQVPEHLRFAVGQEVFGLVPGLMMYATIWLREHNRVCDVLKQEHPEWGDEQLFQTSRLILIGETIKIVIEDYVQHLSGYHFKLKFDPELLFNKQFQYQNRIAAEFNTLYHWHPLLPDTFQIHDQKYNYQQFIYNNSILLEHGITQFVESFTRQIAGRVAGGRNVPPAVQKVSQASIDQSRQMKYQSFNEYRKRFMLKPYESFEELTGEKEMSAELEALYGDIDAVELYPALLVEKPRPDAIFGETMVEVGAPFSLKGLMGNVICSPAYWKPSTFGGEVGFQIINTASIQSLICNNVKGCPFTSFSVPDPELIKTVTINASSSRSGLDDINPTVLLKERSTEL

| SMILES | IC50 [1] | IC50 [2] | Activity [3] | Activity [4] | Kd [5] | Activity [6] |
| --- | --- | --- | --- | --- | --- | --- |
| Oc1cc(O)c2c(c1)O[C@@H](c1ccc(O)c(O)c1)[C@@H](O)C2 [(+)-EPICATECHIN] | 2.5 µM | 12.8 µM | inactive | 5% | 25.1 µM | inactive |
| Oc1cc(O)c2c(c1)O[C@@H](c1ccc(O)c(O)c1)[C@H](O)C2 [(-)-CATECHIN] | 5.3 µM | 30.8 µM | inactive | 8% | 48.7 µM | inactive |
| Oc1cc(O)c2c(c1)O[C@H](c1ccc(O)c(O)c1)[C@H](O)C2 [(-)-EPICATECHIN] | 2 µM | 12.2 µM | inactive | 5% | 25.9 µM | inactive |
| Oc1cc(O)c2c(c1)O[C@H](c1ccc(O)c(O)c1)[C@@H](O)C2 [CIANIDANOL] | 4.1 µM | 20.2 µM | inactive | 7% | 40.7 µM | inactive |
| Oc1cccc(O)c1 [RESORCINOL] | 3.6 µM | 30.8 µM | inactive | 5% | 86.9 µM | – |
| Oc1ccc(/C=C/c2cc(O)cc(O)c2)cc1 [RESVERATROL] | 2.8 µM | 67.3 µM | inactive | – | 11.7 µM | – |
